Values after ≈ are worked out from the molar mass of the structure shown. Like-named read-outs stand apart in the source and are kept apart here.

One experiment deals with DLD-2 human colon tumor. The experiment is described as follows: In vivo human tumor xenograft model, DLD-2 human colon tumor in nude mice. Conditions: i.v. once daily for nine consecutive days, tumor growth inhibition, NCI criteria. The text has this: (§1) The DLD-2 human colon tumor, MX-1 human mammary carcinoma, and LX-1 human lung tumor were originally obtained from a surgically removed primary colon carcinoma, breast tumor, and non-small lung carcinoma, respectively. The human tumor lines were maintained by serial passage in athymic nude mice. The MX-1 human mammary carcinoma and LX-1 human lung tumor are established tumors used by the NCI. The DLD-2, MX-1, and LX-1 tumor models have been well characterized.
(§2) The mice used in these experiments were outbred Swiss mice or BALB/c mice bearing the nude (nu/nu) gene. On day 0 male and female mice weighing 22-30 g are inoculated with 0.2 mL of a 25% tumor mince. This mince is prepared by mincing fresh tumor tissue, grown subcutaneously in passage mice, in sterile physiological saline. Palpable tumors weighing approximately 50 mg appear in the mice within 7-10 days after inoculation. The mice are pair matched by tumor weight and sex into groups of ten each and the test compounds and vehicle control are administered intravenously (i.v.) once daily for nine consecutive days. A >20% decrease in body weight on day 5 following compound administration is considered an indication of toxicity. Tumor measurements and body weights are recorded once a week. Fifteen to 18 days after the initial injection the mice are weighed, sacrificed and the tumors excised and weighed.
(§3) The efficacy of the test compounds is determined by the extent of tumor growth inhibition in treated versus vehicle-treated control mice. Initial tumor weights (mg) are calculated from the tumor dimensions (mm) measured from caliper measurements, using the formula for a prolate ellipsoid (mg of tumor weight=(length×width^2)/2). Net tumor weights are calculated for each of the treated groups and the vehicle-treated control group by subtracting the initial tumor weight from the final tumor weight on day 15. Results are expressed as a percentage decrease relative to the mean tumor weight for the control vehicle-treated group. [formula]
(§4) The criteria of the National Cancer Institute (NCI) for activity in the in vivo cancer models were used. Tumor growth inhibition of 58-89% in the DLD-2 assay is considered moderate activity and inhibition of ≥90% is condidered good to excellent activity.

The next experiment concerns LX-1 human lung tumor. In words: In vivo human tumor xenograft model, LX-1 human lung tumor in nude mice. Conditions: i.v. once daily for nine consecutive days, NCI criteria.
Text: as §1, §2, §3, §4

For experiment [1], the system named is murine leukemia L1210 cells. The experiment is described as follows: In vitro growth inhibition of L1210 cells (MTT). The format is cell-based. Conditions: Mus musculus. The protocol: L1210 cells were maintained in RPMI-1640 a medium supplemented with 10% heat inactivated fetal bovine serum and […] (RPMI-L). B16 cells were maintained in RPMI-1640 medium supplemented with 15% heat inactivated fetal bovine serum and antiobiotics (RPMI-C).
Exponentially growing murine leukemia L1210 cells (1×10^3 cells) in 0.1 mL medium were seeded on day 0 in a 96-well microtiter plate. On day 1, […] aliquot of medium containing graded concentrations of test analogs was added to the initial volume. After incubation at 37° C. in a humidified incubator for 3 days, the plates were centrifuged briefly and […] of the growth medium was removed. Cell cultures were incubated with 50 μL of 3-(4,5-dimethylthiazol-2-yl)-2,5-diphenyltetrazolium bromide (MTT; 1 mg/ml in Dulbecco's phosphate buffer saline) for 4 hours at 37° C. The resulting purple formazan precipitate was solubilized with 200 μL of 0.04N HCl in isopropyl alcohol. Absorbance was read in a Titertek Multiskan MCC scaning well spectrophotometer (Flow Laboratories) at a test wavelength of 570 nm and a reference wavelength of 630 nm.
The ID50 values were determined by a computer program that fit all of the data (8 determinations per concentration and 12 concentrations per test analog) to the following equation:
Y=((Am-Ao)/(1+(X/ID50)n))+Ao
where: Am=absorbance of the control cells; Ao=absorbance of the cells in the presence of highest drug concentration; Y=observed absorbance; X=drug concentration; ID50 =dose of drug that inhibits the growth of cells to one half that of the control cells.

In experiment [2] the test system is MX-1 human mammary carcinoma. The experiment is described as follows: In vivo human tumor xenograft model, MX-1 human mammary carcinoma in nude mice. Particulars: i.v. once daily for nine consecutive days, NCI criteria.
Text: as §1, §2, §3, §4

`C[C@H](CNCCNC[C@@H](C)N1C(=O)c2cccc3cc([N+](=O)[O-])cc(c23)C1=O)N1C(=O)c2cccc3cc([N+](=O)[O-])cc(c23)C1=O` [Example 3, (R,R)-2,2'-[1,2-ethanediylbis[imino(1-methyl-2,1-ethanediyl)]]-bis[5-nitro-1H-benz[de]isoquinoline-1,3(2H)-dione]methanesulfonate (1:2)]: the “activity against DLD-2 human colon tumors” value in the experiment on DLD-2 human colon tumor is reported as “excellent to outstanding activity”. In addition, the “activity against LX-1 human lung tumors” value in the experiment on LX-1 human lung tumor is reported as “good to excellent activity (inhibition of ≥90% is condidered good to excellent activity)”. The IC50 in experiment [1] (L1210, 72 h, read-out: ID50) was found to be 0.051 µg/mL (≈ 0.0817 µM). Further, the “activity in the MX-1 human breast tumor model” value in experiment [2] was “excellent to outstanding activity”.
Take `C[C@H](CN1C(=O)c2cc([N+](=O)[O-])cc3cc([N+](=O)[O-])cc(c23)C1=O)NCCN[C@H](C)CN1C(=O)c2cc([N+](=O)[O-])cc3cc([N+](=O)[O-])cc(c23)C1=O` [Example 32]: in experiment [1] (L1210, 72 h, read-out: ID50), the IC50 worked out at 0.057 µg/mL (≈ 0.0798 µM).
Consider `C[C@@H](CN[C@@H](C)CN1C(=O)c2cccc3cc([N+](=O)[O-])cc(c23)C1=O)NC[C@H](C)N1C(=O)c2cccc3cc([N+](=O)[O-])cc(c23)C1=O` [Example 43], for which, in experiment [1] (L1210, 72 h, read-out: ID50), the IC50 was determined as 0.04 µg/mL (≈ 0.0626 µM).
As to `C[C@H](CNCCNC[C@H](C)N1C(=O)c2cccc3cc([N+](=O)[O-])cc(c23)C1=O)N1C(=O)c2cccc3cc([N+](=O)[O-])cc(c23)C1=O` [Example 26, (Meso)-2,2'-[1,2-ethanediylbis[imino(1-methyl-2,1-ethanediyl)]]-bis[5-nitro-1H-benz[de]isoquinoline-1,3(2H)-dione]methanesulfonate (1:2)], the “activity against DLD-2 human colon tumors” value in the experiment with DLD-2 human colon tumor is listed as “excellent to outstanding activity”. Further, the IC50 in experiment [1] (L1210, 72 h, read-out: ID50) came out at 0.074 µg/mL (≈ 0.118 µM).
For the molecule `CC(CNCCNCC(C)N1C(=O)c2cccc3cc([N+](=O)[O-])cc(c23)C1=O)N1C(=O)c2cccc3cc([N+](=O)[O-])cc(c23)C1=O` (racemic) [Example 2, (Racemate+meso)-2,2'-[1,2-ethanediylbis[imino(1-methyl-2,1-ethanediyl)]]-bis[5-nitro-1H-benz[de]isoquinoline-1,3(2H) -dione]methanesulfonate (1:2)], the “activity against DLD-2 human colon tumors” value with DLD-2 human colon tumor is “excellent to outstanding activity”. For the same molecule, the “activity against LX-1 human lung tumors” value in the experiment on LX-1 human lung tumor is “good to excellent activity (inhibition of ≥90% is condidered good to excellent activity)”. Moreover, the IC50 in experiment [1] (L1210, 72 h, read-out: ID50) is 0.062 µg/mL (≈ 0.0993 µM). In addition, in experiment [2], the “activity in the MX-1 human breast tumor model” value is listed as “excellent to outstanding activity”.
Regarding `CC(CN1C(=O)c2cccc3cc([N+](=O)[O-])cc(c23)C1=O)NCCNC(C)CN1C(=O)c2cccc3cc([N+](=O)[O-])cc(c23)C1=O` (racemic) [Example 30], in the experiment with DLD-2 human colon tumor, the “activity against DLD-2 human colon tumors” value is “excellent to outstanding activity”. For the same molecule, the IC50 in experiment [1] (L1210, 72 h, read-out: ID50) is < 0.01 µg/mL. Moreover, the “activity in the MX-1 human breast tumor model” value in experiment [2] is reported as “excellent to outstanding activity”.
`C[C@@H](CN1C(=O)c2cccc3cc([N+](=O)[O-])cc(c23)C1=O)NCCN[C@@H](C)CN1C(=O)c2cccc3cc([N+](=O)[O-])cc(c23)C1=O` [Example 27, (S,S)-2,2'-[1,2-ethanediylbis[imino(2-methyl-2,1-ethanediyl)]]-bis[5-nitro-1H-benz[de]isoquinoline-1,3(2H)-dione]methanesulfonate (1:2)]: in the experiment with DLD-2 human colon tumor, the “activity against DLD-2 human colon tumors” value is given as “excellent to outstanding activity”. In addition, in the experiment on LX-1 human lung tumor, the “activity against LX-1 human lung tumors” value is “good to excellent activity (inhibition of ≥90% is condidered good to excellent activity)”. The IC50 in experiment [1] (L1210, 72 h, read-out: ID50) was 0.0025 µg/mL (≈ 0.004 µM). The “activity in the MX-1 human breast tumor model” value in experiment [2] is recorded as “excellent to outstanding activity”.
On to `C[C@@H](CNCCNC[C@H](C)N1C(=O)c2cccc3cc([N+](=O)[O-])cc(c23)C1=O)N1C(=O)c2cccc3cc([N+](=O)[O-])cc(c23)C1=O` [Example 1, (S,S)-2,2'-[1,2-ethanediylbis[imino(1-methyl-2,1-ethanediyl)]]-bis[5-nitro-1H-benz[de]isoquinoline-1,3(2H)-dione]methanesulfonate (1:2)], for which the “activity against DLD-2 human colon tumors” value in the experiment with DLD-2 human colon tumor is recorded as “excellent to outstanding activity”. In experiment [1] (L1210, 72 h, read-out: ID50), the IC50 came to 0.047 µg/mL (≈ 0.0752 µM). Besides, the “activity in the MX-1 human breast tumor model” value in experiment [2] was “good to excellent activity (inhibition of ≥90% is condidered good to excellent activity)”.
For `CS(=O)(=O)O.CS(=O)(=O)O.C[C@H](CN1C(=O)c2cccc3cc([N+](=O)[O-])cc(c23)C1=O)NCCN[C@H](C)CN1C(=O)c2cccc3cc([N+](=O)[O-])cc(c23)C1=O` [Example 29, (R,R)-2,2'-[1,2-ethanediylbis[imino(2-methyl)-2,1-ethanediyl)]-bis[5-nitro-1H-benz[de]isoquinoline-1,3(2H)-dione]-methanesulfonate (1:2)], in the experiment with DLD-2 human colon tumor, the “activity against DLD-2 human colon tumors” value is listed as “good to excellent activity (inhibition of ≥90% is condidered good to excellent activity)”. For the same molecule, the “activity against LX-1 human lung tumors” value in the experiment on LX-1 human lung tumor is “good to excellent activity (inhibition of ≥90% is condidered good to excellent activity)”. In addition, the IC50 in experiment [1] (L1210, 72 h, read-out: ID50) was < 0.01 µg/mL. In addition, the “activity in the MX-1 human breast tumor model” value in experiment [2] was “excellent to outstanding activity”.
Regarding `C[C@@H](CN1C(=O)c2cccc3cc([N+](=O)[O-])cc(c23)C1=O)NCCN[C@@H](C)CN1C(=O)c2cccc3cc([N+](=O)[O-])cc(c23)C1=O` (relative stereo) [Example 42], in experiment [1] (L1210, 72 h, read-out: ID50), the IC50 was < 0.001 µg/mL.
For `C[C@@H](CN1C(=O)c2cccc3cccc(c23)C1=O)NCCN[C@@H](C)CN1C(=O)c2cccc3cccc(c23)C1=O` [Example 28, (S,S)-2,2'-[1,2-ethanediylbis[imino(2-methyl-2,1-ethanediyl)]]-bis[^1 H-benz[de]isoquinoline-1,3(2H)-dione]methanesulfonate (1:2)], the IC50 in experiment [1] (72 h, murine leukemia L1210 cells, 3 days incubation, MTT, read-out: ID50 (the source's name)) amounted to 0.21 µg/mL (≈ 0.393 µM).
With `C[C@H](CN1C(=O)c2cccc3c([N+](=O)[O-])ccc(c23)C1=O)NCCN[C@H](C)CN1C(=O)c2cccc3c([N+](=O)[O-])ccc(c23)C1=O` [Example 31], the IC50 in experiment [1] (L1210, 72 h, read-out: ID50) came out at 0.19 µg/mL (≈ 0.304 µM).

The values above are taken from patent publication US5461176A, “Processes for preparing bis-naphthalimides containing amino-acid derived linkers” (The Du Pont Merck Pharmaceutical Company, priority 1994, dated 1995).
